Results published in ChEMBL document CHEMBL5331042, “Azole inhibitors of mushroom and human tyrosinases: Current advances and prospects of drug development for melanogenic dermatological disorders” (Eur J Med Chem, 2022).
pIC50: −log10 of the molar value. Peptide text beside a SMILES is read from it.

How the values were obtained:
Mushroom tyrosinase [1] = molecular target: T1, Mushroom tyrosinase (Agaricus bisporus, UniProt O42713+Q00024+C7FF04+C7FF05); assay: Inhibition of mushroom tyrosinase using L-DOPA as substrate preincubated for 10 mins followed by substrate addition and measured after 20 mins
Mushroom tyrosinase [2] = molecular target: T1, Mushroom tyrosinase; assay: Inhibition of mushroom tyrosinase
Tyrosinase [3] = molecular target: T2, Tyrosinase (Homo sapiens, UniProt P14679); assay: Inhibition of human tyrosinase using L-DOPA as substrate incubated for 10 to 20 mins by MBTH dye based assay
T2 sequence (P14679 whole entry): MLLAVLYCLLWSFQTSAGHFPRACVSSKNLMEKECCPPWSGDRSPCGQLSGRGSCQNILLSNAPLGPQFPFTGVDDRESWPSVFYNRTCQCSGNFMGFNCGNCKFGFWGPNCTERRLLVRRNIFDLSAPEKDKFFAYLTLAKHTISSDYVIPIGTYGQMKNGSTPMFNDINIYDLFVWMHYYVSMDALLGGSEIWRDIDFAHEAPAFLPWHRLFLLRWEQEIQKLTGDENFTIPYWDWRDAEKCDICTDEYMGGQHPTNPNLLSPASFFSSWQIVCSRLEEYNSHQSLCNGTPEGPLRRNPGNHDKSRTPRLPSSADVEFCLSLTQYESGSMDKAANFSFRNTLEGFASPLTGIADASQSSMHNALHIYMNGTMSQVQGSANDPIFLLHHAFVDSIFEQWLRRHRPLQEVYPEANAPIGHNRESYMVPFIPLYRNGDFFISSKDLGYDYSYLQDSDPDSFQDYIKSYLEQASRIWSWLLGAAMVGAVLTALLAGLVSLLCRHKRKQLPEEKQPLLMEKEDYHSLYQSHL

Tyrosinase [4] = molecular target: T2, Tyrosinase; assay: Inhibition of human His-tagged tyrosinase CD expressed in HEK293 cells assessed as inhibition of melanin production using L-DOPA as substrate; format: cell-based
Mushroom tyrosinase [5] = molecular target: T1, Mushroom tyrosinase; assay: Inhibition of mushroom tyrosinase using L-DOPA as substrate preincubated for 20 mins followed by substrate addition by absorbance based analysis
Mushroom tyrosinase [6] = molecular target: T1, Mushroom tyrosinase; assay: Inhibition of mushroom tyrosinase using L-tyrosine as substrate preincubated for 20 mins followed by substrate addition by absorbance based analysis
Mushroom tyrosinase [7] = molecular target: T1, Mushroom tyrosinase; assay: Inhibition of mushroom tyrosinase using L-DOPA as substrate preincubated for 10 mins followed by substrate addition by absorbance based analysis
Mushroom tyrosinase [8] = molecular target: T1, Mushroom tyrosinase; assay: Binding affinity to mushroom tyrosinase assessed as inhibition constant using L-DOPA as substrate preincubated for 10 mins followed by substrate addition by absorbance based analysis
Mushroom tyrosinase [9] = molecular target: T1, Mushroom tyrosinase; assay: Inhibition of mushroom tyrosinase using L-DOPA as substrate preincubated for 10 mins followed by substrate addition and measured after 20 mins by absorbance based analysis
Mushroom tyrosinase [10] = molecular target: T1, Mushroom tyrosinase; assay: Binding affinity to mushroom tyrosinase assessed as inhibition constant using L-DOPA as substrate preincubated for 10 mins followed by substrate addition and measured after 20 mins
[11] = Cytotoxicity against mouse B16-F10 cells assessed as inhibition of cell growth at 8 uM measured after 24 hrs by MTT assay relative to control; format: toxicity, cell-based
Mushroom tyrosinase [12] = molecular target: T1, Mushroom tyrosinase; assay: Inhibition of mushroom tyrosinase incubated for 10 mins by spectrophotometric analysis

## COc1ccccc1-n1c(SCC(=O)Nc2ccccc2)nnc1-c1ccccc1F
Mushroom tyrosinase [1]
  IC50: 0.54 µM

## CC(C)[C@H]1C(=O)N2CCC[C@H]2c2cn(nn2)[C@@H](Cc2ccc(O)cc2)C(=O)N2CCC[C@H]2c2cn1nn2
Mushroom tyrosinase [2]
  IC50: 1.6 µM

## COc1ccccc1-n1c(SCC(=O)Nc2ccc(I)cc2)nnc1-c1ccccc1F
Mushroom tyrosinase [1]
  IC50: 0.06 µM

## CCCCc1ccc(O)c(C)c1O
Tyrosinase [3]
  pIC50: < 3.70

## CCCCc1ccc(O)cc1O [RUCINOL]
Tyrosinase [4]
  pIC50: 4.87

## COc1ccccc1-n1c(SCC(=O)Nc2ccc(I)cc2)nnc1-c1ccccc1
Mushroom tyrosinase [1]
  IC50: 0.65 µM

## O=C(Nc1cccc(-c2ccc(O)cc2O)c1)C1CCCCC1
Tyrosinase [3]
  pIC50: < 3.15

## C[C@@H](O)CCc1ccc(O)cc1
Tyrosinase [4]
  pIC50: 2.92

## CCCCCCc1ccc(O)c(C)c1O
Tyrosinase [3]
  pIC50: 4.03

## CC(C)(O)c1ccc(C(=O)Nc2nc(-c3ccc(O)cc3O)cs2)cc1
Tyrosinase [3]
  pIC50: 5.49

## COc1ccccc1-n1c(SCC(=O)Nc2ccccc2)nnc1-c1ccccc1
Mushroom tyrosinase [1]
  IC50: 0.02 µM

## COc1ccc(NC(=O)Cn2cc(COc3ccc(/C=N/NC(N)=S)cc3)nn2)cc1
Mushroom tyrosinase [5]
  IC50: 0.52 µM
Mushroom tyrosinase [6]
  IC50: 0.12 µM

## COc1cc(C2CC(c3cc4ccccc4oc3=O)=NN2c2nc(-c3ccc(Br)cc3)cs2)ccc1OCc1ccccc1 (configuration not stated)
Mushroom tyrosinase [7]
  IC50: 0.00458 µM
Mushroom tyrosinase [8]
  Ki: 0.0086 µM

## CC(=O)/C=C/Nc1nc(-c2ccc(O)cc2O)cs1
Tyrosinase [3]
  pIC50: 5.46

## Oc1ccc(O)cc1 [HYDROQUINONE]
Tyrosinase [4]
  pIC50: 4.82

## CC(C)C(=O)Nc1nc(-c2ccc(O)cc2O)cs1
Tyrosinase [3]
  pIC50: 5.85
Tyrosinase [4]
  pIC50: 6.05

## O=C1OC(c2ccccc2Br)=NC(=S)C1c1nn[nH]n1 (configuration not stated)
Mushroom tyrosinase [9]
  IC50: 0.037 µM
Mushroom tyrosinase [10]
  Ki: 0.0003 µM

## O=c1cc(CO)occ1O [KOJIC ACID]
[11]
  inhibition at 24 h, 8 µM: 94%

## COc1cc(/C=N/c2nnc(S)s2)ccc1O
Mushroom tyrosinase [7]
  IC50: 0.036 µM
Mushroom tyrosinase [8]
  Ki: 0.038 µM

## CC(C)[C@@H]1NC(=O)[C@@H]2CCCN2C(=O)[C@H](Cc2ccc(O)cc2)NC(=O)[C@@H]2CCCN2C1=O (cyclo(PVPY))
Mushroom tyrosinase [2]
  IC50: 0.6 µM

## CN(c1nc(-c2ccc(O)cc2O)cs1)C1CCCCC1
Tyrosinase [3]
  pIC50: 4.40

## CN(C(=O)C1CCCCC1)c1nc(-c2ccc(O)cc2O)cs1
Tyrosinase [3]
  pIC50: < 3.00

## CCCCn1c(SCC(=O)Nc2ccc(I)cc2)nnc1-c1ccccc1
Mushroom tyrosinase [1]
  IC50: 0.21 µM

## CC(C)Nc1nc(-c2ccc(O)cc2O)cs1
Tyrosinase [3]
  pIC50: 5.96

## Cc1c(NC(=O)Cn2cc(COc3ccc(/C=N/NC(N)=S)cc3)nn2)cccc1[N+](=O)[O-]
Mushroom tyrosinase [5]
  IC50: 0.56 µM
Mushroom tyrosinase [6]
  IC50: 0.25 µM

## O=C(NC1CCCCC1)c1csc(-c2ccc(O)cc2O)n1
Tyrosinase [3]
  pIC50: 5.49

## COc1ccccc1-n1c(SCC(=O)Nc2ccc(F)cc2)nnc1-c1ccccc1
Mushroom tyrosinase [1]
  IC50: 0.08 µM

## O=C(NC1CCCCC1)c1nc(-c2ccc(O)cc2O)cs1
Tyrosinase [3]
  pIC50: 4.25

## Oc1ccc(-c2csc(NC3CCCCC3)n2)c(O)c1
Tyrosinase [3]
  pIC50: 4.80

## OCCc1ccc(O)cc1O
Tyrosinase [3]
  pIC50: < 3.70

## CC(=O)Nc1nc(-c2ccc(O)cc2O)c[nH]1
Tyrosinase [3]
  pIC50: < 3.15

## Oc1ccc(/C=N/c2nnc(S)s2)c(O)c1
Mushroom tyrosinase [7]
  IC50: 0.25 µM
Mushroom tyrosinase [8]
  Ki: 0.075 µM

## CCCNc1nc(-c2ccc(O)cc2O)cs1
Tyrosinase [3]
  pIC50: 5.21

## NC(=S)N/N=C/c1ccc(OCc2cn(CC(=O)NCc3ccccc3)nn2)cc1
[11]
  inhibition at 24 h, 8 µM: 39.8%
Mushroom tyrosinase [5]
  IC50: 0.17 µM
Mushroom tyrosinase [6]
  IC50: 0.25 µM

## Cc1c(Cl)cccc1NC(=O)Cn1cc(COc2ccc(/C=N/NC(N)=S)cc2)nn1
Mushroom tyrosinase [5]
  IC50: 0.26 µM

## CC(C)(C)C(=O)Nc1nc(-c2ccc(O)cc2O)cs1
Tyrosinase [3]
  pIC50: 5.24

## NC(=S)N/N=C/c1ccc(OCc2cn(CC(=O)Nc3cccc(Cl)c3Cl)nn2)cc1
Mushroom tyrosinase [5]
  IC50: 0.42 µM

## NC(=S)N/N=C/c1ccc(OCc2cn(CC(=O)Nc3cccc(Cl)c3)nn2)cc1
Mushroom tyrosinase [5]
  IC50: 0.5 µM

## CCC(=O)Nc1nc(-c2ccc(O)cc2F)cs1
Tyrosinase [3]
  pIC50: < 3.15

## COc1cccc(NC(=O)Cn2cc(COc3ccc(/C=N/NC(N)=S)cc3)nn2)c1
Mushroom tyrosinase [5]
  IC50: 0.84 µM
Mushroom tyrosinase [6]
  IC50: 0.22 µM

## NC(=S)N/N=C/c1ccc(OCc2cn(CC(=O)Nc3ccc([N+](=O)[O-])cc3)nn2)cc1
Mushroom tyrosinase [5]
  IC50: 0.68 µM

## NC(=S)N/N=C/c1ccc(OCc2cn(CC(=O)Nc3ccc(Cl)cc3)nn2)cc1
[11]
  inhibition at 24 h, 8 µM: 69.6%
Mushroom tyrosinase [5]
  IC50: 0.14 µM

## CCCCCn1nc(-c2ccccc2)n(CC(=O)NNC(=O)Nc2cccc(Cl)c2)c1=O
Mushroom tyrosinase [12]
  IC50: > 20 µM

## NC(=S)N/N=C/c1ccc(OCc2cn(CC(=O)Nc3ccc(F)cc3)nn2)cc1
Mushroom tyrosinase [5]
  IC50: 0.6 µM
Mushroom tyrosinase [6]
  IC50: 0.14 µM

## CC(C)[C@H]1C(=O)N2CCC[C@H]2C(=O)N[C@@H](Cc2ccc(O)cc2)C(=O)N2CCC[C@H]2c2cn1nn2
Mushroom tyrosinase [2]
  IC50: 1.5 µM

## Oc1ccc(-c2csc(Nc3ncccn3)n2)cc1
Tyrosinase [3]
  pIC50: 4.72

## CCCCn1c(SCC(=O)Nc2ccccc2)nnc1-c1ccccc1
Mushroom tyrosinase [1]
  IC50: 0.21 µM

## CCCCCn1nc(-c2ccccc2)n(CC(=O)NNC(=S)Nc2cccc(C(F)(F)F)c2)c1=O
Mushroom tyrosinase [12]
  IC50: > 20 µM

## CCCCn1c(SCC(=O)Nc2ccc(Br)cc2)nnc1-c1ccccc1
Mushroom tyrosinase [1]
  IC50: 0.34 µM

## CCCCn1c(SCC(=O)Nc2ccc(F)cc2)nnc1-c1ccccc1
Mushroom tyrosinase [1]
  IC50: 0.37 µM

## CCCCCn1nc(-c2ccccc2)n(CC(=O)NNC(=O)Nc2cccc(Br)c2)c1=O
Mushroom tyrosinase [12]
  IC50: > 20 µM

## CCCCCn1nc(-c2ccccc2)n(CC(=O)NNC(=S)Nc2cccc(Cl)c2)c1=O
Mushroom tyrosinase [12]
  IC50: 5.4 µM

## NC(=S)N/N=C/c1ccc(OCc2cn(CC(=O)NCc3ccc(F)cc3)nn2)cc1
Mushroom tyrosinase [5]
  IC50: 0.43 µM
Mushroom tyrosinase [6]
  IC50: 0.83 µM

## CCCCCn1nc(-c2ccccc2)n(CC(=O)NNC(=S)Nc2ccc(Cl)cc2Cl)c1=O
Mushroom tyrosinase [12]
  IC50: > 20 µM

## NC(=S)N/N=C/c1ccc(OCc2cn(CC(=O)Nc3ccccc3)nn2)cc1
Mushroom tyrosinase [5]
  IC50: 2.18 µM
Mushroom tyrosinase [6]
  IC50: 0.79 µM

## CCCCCn1nc(-c2ccccc2)n(CC(=O)NNC(=S)Nc2cc(Cl)cc(Cl)c2)c1=O
Mushroom tyrosinase [12]
  IC50: 0.17 µM

## COc1ccccc1-n1c(SCC(=O)Nc2ccc(Br)cc2)nnc1-c1ccccc1F
Mushroom tyrosinase [1]
  IC50: 0.15 µM

## CCCC(=O)Nc1cnc(-c2cc(CCC)c(O)cc2O)s1
Tyrosinase [3]
  pIC50: < 3.00

## COc1ccccc1-n1c(SCC(=O)Nc2ccc(Br)cc2)nnc1-c1ccccc1
Mushroom tyrosinase [1]
  IC50: 0.0048 µM
Mushroom tyrosinase [10]
  Ki: 0.007 µM

## COc1ccccc1-n1c(SCC(=O)Nc2ccc(F)cc2)nnc1-c1ccccc1F
Mushroom tyrosinase [1]
  IC50: 0.17 µM

## Cc1sc(NC(=O)C2CCCCC2)nc1-c1ccc(O)cc1O
Tyrosinase [3]
  pIC50: < 3.00

## NC(=S)N/N=C/c1ccc(OCc2cn(CC(=O)Nc3cccc(Br)c3)nn2)cc1
[11]
  inhibition at 24 h, 8 µM: ≤ 70%
Mushroom tyrosinase [5]
  IC50: 0.21 µM

## CCCCCn1nc(-c2ccccc2)n(CC(=O)NNC(=S)Nc2cccc(F)c2)c1=O
Mushroom tyrosinase [12]
  IC50: 15.2 µM

## CC(C)[C@@H]1NC(=O)[C@@H]2CCCN2C(=O)[C@H](Cc2ccc(O)cc2)n2cc(nn2)[C@@H]2CCCN2C1=O
Mushroom tyrosinase [2]
  IC50: 0.5 µM

## CCCCCn1nc(-c2ccccc2)n(CC(=O)NNC(=S)Nc2ccccc2F)c1=O
Mushroom tyrosinase [12]
  IC50: > 20 µM

## CCCCCn1nc(-c2ccccc2)n(CC(=O)NNC(=O)Nc2ccc(Br)cc2)c1=O
Mushroom tyrosinase [12]
  IC50: > 20 µM

## OCc1ccc(Nc2nc(-c3ccc(O)cc3O)cs2)cc1
Tyrosinase [3]
  pIC50: 5.24

## CCCCCn1nc(-c2ccccc2)n(CC(=O)NNC(=O)Nc2ccc(Cl)cc2)c1=O
Mushroom tyrosinase [12]
  IC50: > 20 µM

## CCCCCn1nc(-c2ccccc2)n(CC(=O)NNC(=O)Nc2ccccc2F)c1=O
Mushroom tyrosinase [12]
  IC50: > 20 µM

## CCCCCn1nc(-c2ccccc2)n(CC(=O)NNC(=S)Nc2ccc(Cl)cc2)c1=O
Mushroom tyrosinase [12]
  IC50: 0.19 µM

## CC(=O)Nc1nc(-c2ccc(O)cc2O)cs1
Tyrosinase [3]
  pIC50: 5.25
